Measurements published in patent US9504746B2, “Pharmaceutical compositions of 4-(3-chloro-4-(cyclopropylaminocarbonyl)aminophenoxy)-7-methoxy-6-quinolinecarboxamide” (Eisai R&D Management Co., Ltd., priority 2004, dated 2016).

assay: pH of 5% (w/w) aqueous solution or suspension of additive; type: physicochemical; details: 5% (w/w) aqueous solution or suspension of the additive itself

| Structure (SMILES) | pH value of 5% (w/w) aqueous solution or suspension |
| --- | --- |
| O=P([O-])([O-])O.[K+].[K+] [Example K2HPO4, Dipotassium hydrogenphosphate] | 9.11 |
| O=C([O-])CC(O)(CC(=O)[O-])C(=O)[O-].[Na+].[Na+].[Na+] [Sodium citrate] | 8.22 |
| [O]=[Mg] [MgO, Magnesium oxide] | 10.63 |
| CC(=O)[O-].[Na+] [Sodium acetate] | 8.46 |
| O=P([O-])([O-])O.[Na+].[Na+] [Na2HPO4, Disodium hydrogenphosphate] | 9.26 |
| O=C([O-])O.[Na+] [NaHCO3, Sodium hydrogencarbonate] | 8.15 |
| [Na+].[OH-] [NaOH, Sodium hydroxide] | 13.56 |
| O=C1O[C@H](CO)[C@@H](O)[C@H](O)[C@H]1O [δ-Gluconolactone] | 2.40 |
| O=C([O-])[O-].[Na+].[Na+] [Na2CO3, Sodium carbonate] | 11.45 |
| NCC(=O)O [Glycine] | 6.17 |
